Data on 13 molecules can be found in PubChem BioAssay (NCI).

Some test systems named below: M14 melanoma; HOP-62 NSCLC; MDA-MB-435; MOLT-4 leukemia; HS 578T breast; EKVX NSCLC; SF-539 CNS; MDA-MB-231 breast; SN12C renal; UACC-257 melanoma.
Common to all, as to test: inhibition of tumour cell growth, NCI panel, 48 h

Values joined by “and” are separate entries in the source; they are usually repeats but may differ in a detail not shown here. Equal values may be shown once.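 Test compounds were applied to cells in 96-well plates for 48 hours at 5 doses. Here, GI50 denotes the concentration required for 50% inhibition of growth. Definition used: TGI = concentration required for complete inhibition of growth.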

On to `CC(C)c1ccc(/C=C2/C=C(c3ccc4ccccc4c3)OC2=O)cc1`, for which the TGI in the assay with M14 melanoma is more than 100 µM; with HOP-62 NSCLC, more than 100 µM; in the assay with MDA-MB-435, more than 100 µM; in the assay with MOLT-4 leukemia, 56.8 µM; with HS 578T breast it was more than 100 µM; in the assay on EKVX NSCLC, more than 92.5 µM. Besides, the TGI with SF-539 CNS is more than 100 µM; in the assay on MDA-MB-231 breast, more than 100 µM; in the assay on SN12C renal it was more than 100 µM; with UACC-257 melanoma, 59.2 µM.

Take `O=C1C(=Cc2ccc(O)cc2)N=C(c2ccccc2)N1n1c(-c2ccccc2)nc2ccccc2c1=O`: the TGI in the assay with M14 melanoma, in the assay with HOP-62 NSCLC, in the assay with MDA-MB-435, in the assay with MOLT-4 leukemia, in the assay with HS 578T breast and in the assay on EKVX NSCLC was more than 100 µM throughout. Besides, the TGI in the assay on SF-539 CNS, with MDA-MB-231 breast and in the assay with UACC-257 melanoma was more than 100 µM throughout.

With `CC(=O)O[C@H]1C(=O)[C@]2(C)[C@@H](OC(=O)OCCC(O)CO)C[C@H]3OC[C@@]3(OC(C)=O)[C@H]2[C@H](OC(=O)c2ccccc2)[C@]2(O)C[C@H](OC(=O)[C@H](O)[C@@H](NC(=O)c3ccccc3)c3ccccc3)C(C)=C1C2(C)C` (some centres undefined), the TGI was 7.16 µM with M14 melanoma; 21.6 µM in the assay on HOP-62 NSCLC; less than 0.01 µM with MDA-MB-435; 12.7 µM with MOLT-4 leukemia; 0.479 µM in the assay with HS 578T breast; more than 100 µM in the assay on EKVX NSCLC. Also, the TGI turned out to be 0.0297 µM in the assay with SF-539 CNS, 3.7 µM with MDA-MB-231 breast, 19.8 µM in the assay on SN12C renal and 21.4 µM in the assay on UACC-257 melanoma.

Turning to `O=S1(=O)NC(=NCc2c[nH]c3ccccc23)N(c2ccccc2)c2ccncc21`, the TGI was more than 100 µM with M14 melanoma; more than 100 µM in the assay on HOP-62 NSCLC; more than 100 µM in the assay with MDA-MB-435; more than 100 µM with MOLT-4 leukemia; 92.7 µM in the assay on HS 578T breast; more than 100 µM in the assay with EKVX NSCLC. Further, the TGI with SF-539 CNS, in the assay on MDA-MB-231 breast, in the assay on SN12C renal and in the assay on UACC-257 melanoma was more than 100 µM in each case.

Regarding `CC1=CC2C(O1)C1C(=O)C=CC(=O)C1=CC2[N+](=O)[O-]` (centres undefined), the TGI is 29.4 µM with M14 melanoma; 48.7 µM in the assay with HOP-62 NSCLC; 26.4 µM in the assay with MDA-MB-435; more than 24.3 µM in the assay with MOLT-4 leukemia; more than 58 µM in the assay with HS 578T breast; 33.8 µM with EKVX NSCLC. Also, the TGI stood at 96.5 µM with SF-539 CNS, 38.9 µM in the assay with MDA-MB-231 breast, 39.6 µM with SN12C renal and 33.7 µM with UACC-257 melanoma.

On to `Cc1c2cnccc2c(C)c2c1c1ccccc1n2CCCN`, for which the TGI is 0.91 µM with M14 melanoma; 1.52 µM and 0.597 µM in the assay on HOP-62 NSCLC; 0.46 µM in the assay with MDA-MB-435; 0.472 µM and 0.217 µM with MOLT-4 leukemia; 2.37 µM in the assay with HS 578T breast; 1.37 µM and 0.506 µM with EKVX NSCLC. Further, the TGI in the assay with SF-539 CNS is 1.35 µM; in the assay with MDA-MB-231 breast it was 0.439 µM; with SN12C renal, 1.36 µM and 1.1 µM; with UACC-257 melanoma it was 2.32 µM and 1.92 µM. In addition, the GI50 with HOP-62 NSCLC is 0.0687 µM; in the assay with MOLT-4 leukemia, less than 0.0178 µM; with EKVX NSCLC, 0.153 µM; in the assay on SF-539 CNS it was 0.317 µM; in the assay on SN12C renal, 0.25 µM; in the assay on UACC-257 melanoma, 0.633 µM.

`COc1cc(/C=C2\S/C(=N/Nc3nc(-c4ccc(Br)cc4)cs3)NC2=O)cc(OC)c1OC`: the TGI with M14 melanoma was determined as 41.8 µM; in the assay on HOP-62 NSCLC, 30.3 µM; with MDA-MB-435 it was 46.3 µM; with MOLT-4 leukemia it was 9.51 µM; in the assay with HS 578T breast, 89.5 µM; in the assay on EKVX NSCLC it was 63.8 µM. The TGI in the assay on SF-539 CNS was 29.1 µM; in the assay on MDA-MB-231 breast, 47.6 µM; in the assay on SN12C renal, more than 100 µM; in the assay with UACC-257 melanoma it was 44.9 µM.

As for `COc1c(C)c(C/C=C(\C)CCCCO[Si](c2ccccc2)(c2ccccc2)C(C)(C)C)c(OC)c(OC)c1OC`, the TGI was more than 46.4 µM in the assay with M14 melanoma; more than 46.4 µM with HOP-62 NSCLC; more than 46.4 µM in the assay on MDA-MB-435; more than 46.4 µM in the assay on MOLT-4 leukemia; more than 100 µM with HS 578T breast; more than 31.6 µM in the assay on EKVX NSCLC. In addition, the TGI in the assay with SF-539 CNS is more than 46.4 µM; in the assay on MDA-MB-231 breast, more than 100 µM; in the assay with SN12C renal, more than 46.3 µM; with UACC-257 melanoma it was more than 46.4 µM.

Regarding `CCNC(=S)N/N=C/c1cc([N+](=O)[O-])ccc1O`, the TGI in the assay on M14 melanoma is more than 100 µM; in the assay with HOP-62 NSCLC, more than 100 µM; with MDA-MB-435 it was more than 100 µM; in the assay with MOLT-4 leukemia, 63.7 µM; with HS 578T breast, more than 100 µM; in the assay with EKVX NSCLC, more than 100 µM. The TGI with SF-539 CNS, with MDA-MB-231 breast, with SN12C renal and in the assay with UACC-257 melanoma was more than 100 µM throughout.

In the case of `COc1ccc(/C=C2\CCC(C)C3=C2NC(=S)NC3c2ccc(OC)c(OC)c2)cc1OC` (centres undefined), the TGI is more than 31.6 µM in the assay on M14 melanoma; more than 100 µM in the assay on HOP-62 NSCLC; more than 31.6 µM in the assay on MDA-MB-435; 25.3 µM in the assay with MOLT-4 leukemia; more than 31.6 µM with HS 578T breast; more than 31.6 µM in the assay on EKVX NSCLC. In addition, the TGI in the assay with SF-539 CNS, in the assay with MDA-MB-231 breast, in the assay with SN12C renal and with UACC-257 melanoma was more than 31.6 µM in each case.

Regarding `COc1ccc(N2C(=O)C3c4[nH]c5ccccc5c4C4CCC(C(C)(C)C)CC4C3C2=O)c(C)c1` (centres undefined), the TGI with M14 melanoma, with HOP-62 NSCLC, in the assay on MDA-MB-435, in the assay with MOLT-4 leukemia, with HS 578T breast and with EKVX NSCLC was more than 100 µM each time. The TGI with SF-539 CNS, in the assay with MDA-MB-231 breast, in the assay with SN12C renal and with UACC-257 melanoma was more than 100 µM in each case.

Regarding `Oc1cc2c3c(c1)c1cc4c(cc1c[n+]3CC2)OCO4`, the TGI in the assay with M14 melanoma is more than 100 µM; in the assay on HOP-62 NSCLC, more than 100 µM; with MDA-MB-435, more than 55 µM; with HS 578T breast, 13.6 µM; in the assay with EKVX NSCLC it was more than 76.6 µM; in the assay on SF-539 CNS, more than 100 µM. For the same molecule, the TGI in the assay with MDA-MB-231 breast is 29.9 µM; in the assay with SN12C renal, 5.71 µM; in the assay with UACC-257 melanoma, more than 57.4 µM.

For the molecule `N#CC1=C(N)N(c2ccccc2)C(c2ccco2)C1(C#N)C#N` (centres undefined), the TGI in the assay with M14 melanoma was 43.4 µM; with HOP-62 NSCLC, 54.3 µM; with MDA-MB-435, 71.8 µM; in the assay on MOLT-4 leukemia, 71 µM; in the assay with HS 578T breast, more than 100 µM; in the assay with EKVX NSCLC, 73.3 µM. Moreover, the TGI in the assay on SF-539 CNS was 41.2 µM; in the assay with MDA-MB-231 breast it was 35.1 µM; with SN12C renal it was more than 100 µM; in the assay on UACC-257 melanoma, 37.2 µM.
